Measured values published in patent publication US10351576B2, “Fused tricyclic pyrazole derivatives useful for farnesoid X receptors” (NOVARTIS AG, priority 2015, dated 2019).

Biological target: T1, human Farnesoid X Receptor (FXR) ligand binding domain (GST-FXR LBD) (Homo sapiens, UniProt Q96RI1)
T1 construct: purchased Invitrogen
T1 sequence (Q96RI1 193-472 isoform Q96RI1-2): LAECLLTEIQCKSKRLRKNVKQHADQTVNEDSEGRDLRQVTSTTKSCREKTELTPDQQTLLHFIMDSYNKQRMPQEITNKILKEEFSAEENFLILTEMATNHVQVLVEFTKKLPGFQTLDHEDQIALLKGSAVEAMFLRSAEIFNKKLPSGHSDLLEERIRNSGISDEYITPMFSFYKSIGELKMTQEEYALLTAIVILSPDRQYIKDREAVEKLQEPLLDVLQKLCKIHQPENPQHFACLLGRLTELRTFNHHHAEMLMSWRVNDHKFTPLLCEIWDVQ
Assay: Human GST-FXR LBD co-activator interaction assay (FXR HTRF assay)
Assay type: biochemical
Details: ligand-dependent interaction of GST-FXR LBD with biotin-labeled SRC-1 peptide, response relative to GW4064, read-out: FXR coactivator interaction assay (HTRF)
Text: Human GST-FXR LBD Co-Activator Interaction Assay
The FXR HTRF assay is a biochemical assay measuring the interaction between FXR and a coactivator protein (SRC1). The ligand-induced interaction with a coactivator protein is a critical step in transcriptional activation by FXR. Thus, this is an assay designed to measure FXR agonist activity of the test compounds.
Recombinant human Farnesoid X Receptor (FXR) ligand binding domain (amino acids 193-472) fused to glutathione S-transferase (GST) purified protein (GST-FXR LBD) was purchased (Invitrogen). The ligand-dependent interaction between GST-FXR LBD and a peptide derived from Steroid Receptor Coactivator-1 (SRC-1) was monitored by Fluorescence Resonance Energy Transfer (FRET). […] Test compounds (in DMSO solution) and detection reagents (anti-GST-Cryptate labeled antibody and Streptavidin-XL665 conjugate; CisBio) were added in assay buffer containing 50 mM KF. Plates are incubated at room temperature in the dark for 2.5 hrs before reading on an Envision (PerkinElmer) at 665 nm and 590 nm. The HTRF assay results were calculated from the 665 nm/590 nm ratio (ratio=(A665 nm/A590 nm)×10^4) and expressed in Delta F %=(Ratiosample−Rationegative)/Rationegative×100.
A negative control (without Streptavidin-XL665) was run with each assay and represented the background fluorescence. A reference FXR agonist, (E)-3-(2-chloro-4-((3-(2,6-dichlorophenyl)-5-isopropylisoxazol-4-yl)methoxy)styryl)benzoic acid (Compound GW4064), was included in each experiment as positive control. The efficacy of each test compound was compared to that of GW4064. At each concentration, the relative activity of the test compound was expressed as Response %=(Rsample−RDMSO)/(Rpositive−RDMSO), where Rsample is the HTRF response (expressed in Delta F %) for the test compound, Rpositive is the maximal response for GW4064 at saturating concentrations, and RDMSO is the response for DMSO control. The EC50 values were calculated using GraphPad Prism (GraphPad Software) using non-linear regression curve fit (log(agonist) vs. response—variable slope (four parameters)).

EC50	Structure (SMILES)
58 nM	Cn1nc(C(=O)N(CC(=O)NC(C)(C)C)Cc2cccc(F)c2)c2c1-c1cc(Cl)ccc1OC2 [Compound 14, N-tert-butyl-2-(1-{8-chloro-1-methyl-1H,4H-chromeno[4,3-c]pyrazol-3-yl}-N-[(3-fluorophenyl)methyl]formamido)acetamide]
442 nM	Cn1nc(C(=O)N(Cc2ccccc2)Cc2ccc(C(N)=O)cc2)c2c1-c1cc(Cl)ccc1OC2 [Compound 53, N-benzyl-N-(4-carbamoylbenzyl)-8-chloro-1-methyl-1,4-dihydrochromeno[4,3-c]pyrazole-3-carboxamide]
84 nM	CC(C)NC(=O)CN(Cc1cc(F)ccc1F)C(=O)c1nn(C)c2c1COc1ccc(Cl)cc1-2 [Compound 26, 2-(1-{8-chloro-1-methyl-1H,4H-chromeno[4,3-c]pyrazol-3-yl}-N-[(2,5-difluorophenyl)methyl]formamido)-N-(propan-2-yl)acetamide]
266 nM	CNS(=O)(=O)c1ccc(CN(Cc2ccccc2)C(=O)c2nn(C)c3c2COc2ccc(Cl)cc2-3)cc1 [Compound 54, N-benzyl-8-chloro-1-methyl-N-{[4-(methylsulfamoyl)phenyl]methyl}-1H,4H-chromeno[4,3-c]pyrazole-3-carboxamide]
49 nM	Cn1nc(C(=O)N(CC(=O)NC2CCC2)Cc2ccccc2F)c2c1-c1cc(Cl)ccc1OC2 [Compound 19, 2-(1-{8-chloro-1-methyl-1H,4H-chromeno[4,3-c]pyrazol-3-yl}-N-[(2-fluorophenyl)methyl]formamido)-N-cyclobutylacetamide]
19 nM	Cn1nc(C(=O)N(CC(=O)NCC(C)(C)O)Cc2ccccc2F)c2c1-c1cc(Cl)ccc1OC2 [Compound 46, 2-(1-{8-chloro-1-methyl-1H,4H-chromeno[4,3-c]pyrazol-3-yl}-N-[(2-fluorophenyl)methyl]formamido)-N-(2-hydroxy-2-methylpropyl)acetamide]
509 nM	Cn1nc(C(=O)N(Cc2ccccc2)Cc2cccc(F)c2)c2c1-c1cc(Cl)ccc1OC2 [Compound 57, N-benzyl-8-chloro-N-[(3-fluorophenyl)methyl]-1-methyl-1H,4H-chromeno[4,3-c]pyrazole-3-carboxamide]
2 nM	Cn1nc(C(=O)N(CC(=O)NCC2CC2)Cc2cccc(F)c2)c2c1-c1cc(Cl)ccc1OC2 [Compound 1, 8-chloro-N-(2-((cyclopropylmethyl)amino)-2-oxoethyl)-N-(3-fluorobenzyl)-1-methyl-1,4-dihydrochromeno[4,3-c]pyrazole-3-carboxamide]
12 nM	Cn1nc(C(=O)N(CC(=O)NCC2CC2)Cc2ccccc2F)c2c1-c1cc(F)ccc1OC2 [Compound 65, N-(2-((cyclopropylmethyl)amino)-2-oxoethyl)-8-fluoro-N-(2-fluorobenzyl)-1-methyl-1,4-dihydrochromeno[4,3-c]pyrazole-3-carboxamide]
32 nM	CC(C)NC(=O)CN(Cc1ccccc1)C(=O)c1nn(C)c2c1COc1ccc(Br)cc1-2 [Compound 25, 2-(N-benzyl-1-{8-bromo-1-methyl-1H,4H-chromeno[4,3-c]pyrazol-3-yl}formamido)-N (propan-2-yl)acetamide]
1080 nM	CC(C)NC(=O)NCCN(Cc1ccccc1F)C(=O)c1nn(C)c2c1COc1ccc(Cl)cc1-2 [Compound 61, 8-chloro-N-[(2-fluorophenyl)methyl]-1-methyl-N-(2-{[(propan-2-yl)carbamoyl]amino}ethyl)-1H,4H-chromeno[4,3-c]pyrazole-3-carboxamide]

The next lines start with the compound.

Structure (SMILES)	EC50
CC(C)NC(=O)CN(Cc1c(F)cccc1F)C(=O)c1nn(C)c2c1COc1ccc(Cl)cc1-2 [Compound 35, 2-(1-{8-chloro-1-methyl-1H,4H-chromeno[4,3-c]pyrazol-3-yl}-N-[(2,6-difluorophenyl)methyl]formamido)-N-(propan-2-yl)acetamide]	366 nM
CC(C)NC(=O)CN(Cc1ccccc1F)C(=O)c1nn(C)c2c1COc1ccc(Cl)cc1-2 [Compound 29, 2-(1-{8-chloro-1-methyl-1H,4H-chromeno[4,3-c]pyrazol-3-yl}-N-[(2-fluorophenyl)methyl]formamido)-N-(propan-2-yl)acetamide]	197 nM
Cn1nc(C(=O)N(CC(=O)NCC2CCOCC2)Cc2ccccc2F)c2c1-c1cc(Cl)ccc1OC2 [Compound 82, 2-(1-{8-chloro-1-methyl-1H,4H-chromeno[4,3-c]pyrazol-3-yl}-N-[(2-fluorophenyl)methyl]formamido)-N-(oxan-4-ylmethyl)acetamide]	178 nM
Cn1nc(C(=O)N(CC(=O)NC2CC2(F)F)Cc2ccccc2F)c2c1-c1cc(Cl)ccc1OC2 (centres unmarked) [Compound 23, 2-(1-{8-chloro-1-methyl-1H,4H-chromeno[4,3-c]pyrazol-3-yl}-N-[(2-fluorophenyl)methyl]formamido)-N-(2,2-difluorocyclopropyl)acetamide]	87 nM
Cn1nc(C(=O)N(CC(=O)NCC2CC2)CC2CCCC2)c2c1-c1cc(Cl)ccc1OC2 [Compound 75, 2-(1-{8-chloro-1-methyl-1H,4H-chromeno[4,3-c]pyrazol-3-yl}-N-(cyclopentylmethyl)formamido)-N-(cyclopropylmethyl)acetamide]	87 nM
Cn1nc(C(=O)N(CC(=O)NC2CCCC2)Cc2ccccc2F)c2c1-c1cc(Cl)ccc1OC2 [Compound 18, 2-(1-{8-chloro-1-methyl-1H,4H-chromeno[4,3-c]pyrazol-3-yl}-N-[(2-fluorophenyl)methyl]formamido)-N-cyclopentylacetamide]	64 nM
Cn1nc(C(=O)N(CC(=O)NCC2(O)CC2)Cc2ccccc2F)c2c1-c1cc(Cl)ccc1OC2 [Compound 48, 2-(1-{8-chloro-1-methyl-1H,4H-chromeno[4,3-c]pyrazol-3-yl}-N-[(2-fluorophenyl)methyl]formamido)-N-[(1-hydroxycyclopropyl)methyl]acetamide]	75 nM
Cn1nc(C(=O)N(CC(=O)NC2CCS(=O)(=O)C2)Cc2cccc(F)c2)c2c1-c1cc(Cl)ccc1OC2 (centres unmarked) [Compound 36, 8-chloro-N-(2-((1,1-dioxidotetrahydrothiophen-3-yl)amino)-2-oxoethyl)-N-(3-fluorobenzyl)-1-methyl-1,4-dihydrochromeno[4,3-c]pyrazole-3-carboxamide]	99 nM
Cn1nc(C(=O)N(CC(=O)NC2CC2)Cc2ccccc2F)c2c1-c1cc(Cl)ccc1OC2 [Compound 8, 2-(1-{8-chloro-1-methyl-1H,4H-chromeno[4,3-c]pyrazol-3-yl}-N-[(2-fluorophenyl)methyl]formamido)-N-cyclopropylacetamide]	31 nM
